Results on 14 molecules are retold here after article PMC6211832, “Screening of candidate substrates and coupling ions of transporters by thermostability shift assays” (eLife, 2018).

SMILES strings stand for the structures.

Assay [1] addresses T1, GalP (Escherichia coli, UniProt P0AEP1).
T1 construct: full length, C-terminal His6; plasmid pGP1 in E. coli JM1100, purified in dodecyl-maltoside
Description: CPM thermostability shift assay. Type of assay: binding. To be noted: 50 mM compound, dodecyl-maltoside.

Assay [2] addresses T2, mitochondrial ADP/ATP carrier (AAC) (Thermothelomyces thermophilus, UniProt G2QNH0).
T2 construct: gene MYCTH_2316753; N-terminal His8 tag, TSED linker and Factor Xa site; expressed in S. cerevisiae WB.12 mitochondria, purified in dodecyl-maltoside
Put plainly: CPM thermostability shift assay. The class given is binding. To be noted: 2.5 mM compound, pH 8.0, 100 mM NaCl, dodecyl-maltoside, tetraoleoyl cardiolipin. An excerpt:
CPM thermostability shift assay on mitochondrial ADP/ATP carrier (AAC) | In the presence of ATP, ADP, and dADP the population was stabilized

The target in the next assay is T3, Mhp1 (Microbacterium maritypicum, UniProt D6R8X8).
T3 construct: gene hyuP; full length, C-terminal His6; plasmid pTTQ18, E. coli BL21(DE3), purified in dodecyl-maltoside
Description: CPM thermostability shift assay. The class given is binding. The following applies: 2 mM compound, 140 mM NaCl, pH 8.0, dodecyl-maltoside.

In assay [3] the target is T1, GalP. Description: CPM thermostability shift assay. The class given is binding. To be noted: 50 mM compound, dodecyl-maltoside. The source holds these as a separate data set.
The target in assay [4] is T4, mitochondrial phosphate carrier of Tetrahymena thermophila (UniProt I7M3J0) (Tetrahymena thermophila, UniProt I7M3J0).
T4 construct: gene TTHERM_00535740; N-terminal His8 tag, TSED linker and Factor Xa site; expressed in S. cerevisiae W303-1B mitochondria, purified in lauryl maltose neopentyl glycol
Description: CPM thermostability shift assay. Type of assay: binding. To be noted: 2.5 mM compound, pH 6.0, 100 mM NaCl, tetraoleoyl cardiolipin.

The target in assay [5] is T4, mitochondrial phosphate carrier of Tetrahymena thermophila. Description: competition of […]-orthophosphate uptake in proteoliposomes. The class given is biochemical. The following applies: 20 mM external glyoxylate, 20 μM [33P]-orthophosphate, pH 6.5, 20 mM internal compound.

T4 sequence (I7M3J0 entry or part of it): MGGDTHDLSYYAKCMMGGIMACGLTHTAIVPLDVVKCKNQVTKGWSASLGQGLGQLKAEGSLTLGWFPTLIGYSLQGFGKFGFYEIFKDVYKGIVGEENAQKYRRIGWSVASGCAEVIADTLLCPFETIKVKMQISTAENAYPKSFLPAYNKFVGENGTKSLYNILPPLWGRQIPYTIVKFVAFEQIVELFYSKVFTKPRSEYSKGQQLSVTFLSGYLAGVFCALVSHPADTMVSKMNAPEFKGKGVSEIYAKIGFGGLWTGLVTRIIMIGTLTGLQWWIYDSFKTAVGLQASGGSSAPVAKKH
T2 sequence (G2QNH0 whole entry): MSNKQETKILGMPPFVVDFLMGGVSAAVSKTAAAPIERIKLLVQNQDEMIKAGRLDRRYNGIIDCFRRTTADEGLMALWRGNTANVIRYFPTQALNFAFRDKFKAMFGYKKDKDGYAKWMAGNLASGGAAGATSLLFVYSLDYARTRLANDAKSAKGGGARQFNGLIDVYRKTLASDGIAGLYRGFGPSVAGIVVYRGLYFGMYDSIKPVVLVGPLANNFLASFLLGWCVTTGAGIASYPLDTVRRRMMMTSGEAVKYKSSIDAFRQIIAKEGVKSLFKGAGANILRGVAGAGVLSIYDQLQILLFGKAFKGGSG
T1 sequence (P0AEP1 whole entry): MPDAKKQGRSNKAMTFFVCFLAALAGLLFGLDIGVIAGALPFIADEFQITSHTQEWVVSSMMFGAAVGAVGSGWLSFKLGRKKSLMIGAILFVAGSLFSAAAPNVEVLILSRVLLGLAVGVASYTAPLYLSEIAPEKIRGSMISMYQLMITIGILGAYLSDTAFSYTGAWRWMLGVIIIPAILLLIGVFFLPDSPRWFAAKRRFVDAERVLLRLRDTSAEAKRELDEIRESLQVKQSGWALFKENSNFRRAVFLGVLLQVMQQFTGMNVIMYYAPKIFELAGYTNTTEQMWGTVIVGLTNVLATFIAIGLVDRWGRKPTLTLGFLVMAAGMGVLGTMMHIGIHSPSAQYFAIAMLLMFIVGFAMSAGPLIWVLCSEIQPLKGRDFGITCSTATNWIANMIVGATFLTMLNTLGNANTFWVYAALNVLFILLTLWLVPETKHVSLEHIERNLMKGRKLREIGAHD
T3 sequence (D6R8X8 whole entry): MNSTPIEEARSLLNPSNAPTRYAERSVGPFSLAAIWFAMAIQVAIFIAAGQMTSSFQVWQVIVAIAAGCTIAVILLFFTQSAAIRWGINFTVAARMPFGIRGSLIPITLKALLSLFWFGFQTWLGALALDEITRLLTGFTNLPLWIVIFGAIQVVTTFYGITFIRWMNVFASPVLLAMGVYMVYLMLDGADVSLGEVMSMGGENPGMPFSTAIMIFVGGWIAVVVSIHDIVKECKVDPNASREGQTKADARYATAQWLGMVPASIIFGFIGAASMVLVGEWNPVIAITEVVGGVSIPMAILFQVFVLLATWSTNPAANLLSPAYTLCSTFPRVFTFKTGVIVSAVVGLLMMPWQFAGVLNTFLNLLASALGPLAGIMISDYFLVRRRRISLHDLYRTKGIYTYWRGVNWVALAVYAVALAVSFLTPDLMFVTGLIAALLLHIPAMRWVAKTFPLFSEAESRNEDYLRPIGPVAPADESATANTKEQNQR

With `OC[C@H]1OC(O)C[C@@H](O)[C@@H]1O` (stereo partly drawn) [2-deoxy-D-glucose], the dTm result at GalP [1] is listed as “to a lesser extent by D-talose, 2-deoxy-D-glucose, 6-deoxy-D-glucose”.
Same read-out and setting: the result for `C[C@H]1OC(O)[C@H](O)[C@@H](O)[C@@H]1O` (stereo partly drawn) [6-deoxy-D-glucose] reads “to a lesser extent by D-talose, 2-deoxy-D-glucose, 6-deoxy-D-glucose”.
For the molecule `Nc1ncnc2c1ncn2[C@@H]1O[C@H](COP(=O)(O)OP(=O)(O)O)[C@@H](O)[C@H]1O` [ADP], the dTm in assay [2] came out at 6.0 ± 0.5 °C.
Same read-out and setting: the figure for `Nc1ncnc2c1ncn2[C@@H]1O[C@H](COP(=O)(O)OP(=O)(O)OP(=O)(O)O)[C@@H](O)[C@H]1O` [ATP] is 7.2 ± 0.2 °C.
For `O=C1NC(=O)C(C=CBr)N1` (stereo not drawn) [BVH, 5-bromovinylhydantoin], the dTm on Mhp1 is 11.9 ± 1.1 °C.
Regarding `OC[C@H]1OC(O)[C@H](O)[C@@H](O)[C@H]1O` (stereo partly drawn) [D-galactose], the dTm on GalP [3] was 2.1 ± 0.6 °C.
The same measure, in the same setting: the result for `OC[C@H]1OC(O)[C@H](O)[C@@H](O)[C@@H]1O` (stereo partly drawn) [D-glucose] reads 4.2 ± 0.5 °C.
Regarding `OC[C@H]1OC(O)[C@@H](O)[C@@H](O)[C@H]1O` (stereo partly drawn) [D-talose], the dTm entry at GalP [1] is given as “to a lesser extent by D-talose, 2-deoxy-D-glucose, 6-deoxy-D-glucose”.
Consider `O=C1NC(=O)[C@H](Cc2ccccc2)N1` [L-BH, 5-benzyl-L-hydantoin], for which, at Mhp1, the dTm was determined as 13.6 ± 1.2 °C.
As for `O=C1NC(=O)[C@H](Cc2ccc3ccccc3c2)N1` [L-NMH, 5-(2-naphthylmethyl)-L-hydantoin], the dTm at Mhp1 (inhibitor) came out at 15.6 ± 1.7 °C.
On to `CC(=O)OP(=O)(O)O` [acetyl-phosphate], for which the dTm in assay [4] turned out to be 3.2 ± 0.5 °C.
Consider `Nc1ncnc2c1ncn2[C@H]1C[C@H](O)[C@@H](COP(=O)(O)OP(=O)(O)O)O1` [dADP], for which the dTm in assay [2] came to 1.8 ± 0.2 °C.
Consider `O=CC(=O)O` [glyoxylate], for which the dTm in assay [4] came out at 3.6 ± 0.8 °C. For the same molecule, the “inhibition of phosphate uptake” value in assay [5] was “in competition assays glyoxylate abolished uptake”.
For the molecule `C=C(OP(=O)(O)O)C(=O)O` [phosphoenolpyruvate], in assay [4], the dTm came out at 2.3 ± 0.2 °C.
